Results as given in patent US9073892B2, “Indazolyl triazol derivatives” (Merck Serono S.A., priority 2010, dated 2015).

Tested on: T1, IRAK1/4 human
T1 construct: fused on or other part: His tag and TEV cleavage site at the N-terminus
Test: IRAK1/4 phosphorylation IC50 (enzymatic assay, table 2)
Format: biochemical
Conditions: human IRAK1/4 phosphorylation
Procedure, shortened: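 Compounds in DMSO, from 20 µM down to 1 nM, were incubated with ATP and His-TEV-tagged human IRAK-1 or IRAK-4 in 384-well plates, with STK1-biotin peptide added for IRAK-4. The 2 or 3 hour reactions used Hepes pH7.0 50 mM with MgCl2, DTT, EGTA and BSA. The values report inhibition as IC50.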

IC50	Compound
0.1 to 1 µM	O=C(c1ccc(-n2cc(-c3n[nH]c4cc(Br)ccc34)nn2)cc1)N1CCOCC1 [Example 208]
1 to 5 µM	Cn1cc(-c2ccc3c(-c4cn(-c5ccc(C(=O)N6CCOCC6)cc5)nn4)n[nH]c3c2)cn1 [Example 209]
0.1 to 1 µM	CN1CCC(c2ccc(-n3cc(-c4n[nH]c5ccccc45)nn3)cc2)CC1 [Example 211]
0.1 to 1 µM	COC/C=C/c1ccc2c(-c3cn(-c4ccc(C(=O)N5CCOCC5)cc4)nn3)n[nH]c2c1 [Example 212]
1 to 5 µM	COCC#Cc1ccc2c(-c3cn(-c4ccc(C(=O)N5CCOCC5)cc4)nn3)n[nH]c2c1 [Example 213]
0.1 to 1 µM	O=C(c1ccc(-n2cc(-c3n[nH]c4cc(-c5ccncc5)ccc34)nn2)cc1)N1CCOCC1 [Example 214]
1 to 5 µM	O=C(c1ccc(-n2cc(-c3n[nH]c4cc(C#CCCO)ccc34)nn2)cc1)N1CCOCC1 [Example 215]
0.1 to 1 µM	O=C(c1ccc(-n2cc(-c3n[nH]c4cc(CCCCO)ccc34)nn2)cc1)N1CCOCC1 [Example 216]
0.1 to 1 µM	O=C(c1ccc(-n2cc(-c3n[nH]c4cc(C5=CCOCC5)ccc34)nn2)cc1)N1CCOCC1 [Example 217]
1 to 5 µM	CCC(O)CCc1ccc2c(-c3cn(-c4ccc(C(=O)N5CCOCC5)cc4)nn3)n[nH]c2c1 (stereo not drawn) [Example 218]
1 to 5 µM	NCC#Cc1ccc2c(-c3cn(-c4ccc(C(=O)N5CCOCC5)cc4)nn3)n[nH]c2c1 [Example 219]
0.1 to 1 µM	COCCCc1ccc2c(-c3cn(-c4ccc(C(=O)N5CCOCC5)cc4)nn3)n[nH]c2c1 [Example 220]
0.1 to 1 µM	C#Cc1ccc2c(-c3cn(-c4ccc(C(=O)N5CCOCC5)cc4)nn3)n[nH]c2c1 [Example 221]
0.1 to 1 µM	O=C(c1ccc(-n2cc(-c3n[nH]c4ccc(NC5CCCOC5)cc34)nn2)cc1)N1CCOCC1 (stereo not drawn) [Example 222]
< 0.1 µM	CN1CCC(Nc2ccc3[nH]nc(-c4cn(-c5ccc(C(=O)N6CCOCC6)cc5)nn4)c3c2)CC1 [Example 223]
0.1 to 1 µM	O=C(NC1CCOCC1)c1ccc2[nH]nc(-c3cn(-c4ccc(CN5CCOCC5)cc4)nn3)c2c1 [Example 228]
< 0.1 µM	O=C(NCc1cccc(O)c1)c1ccc2[nH]nc(-c3cn(-c4ccc(CN5CCOCC5)cc4)nn3)c2c1 [Example 230]
0.1 to 1 µM	O=C(NC1CCC(O)CC1)c1ccc2[nH]nc(-c3cn(-c4ccc(CN5CCOCC5)cc4)nn3)c2c1 (stereo not drawn) [Example 231]
1 to 5 µM	CC(C)c1ccc(-n2cc(-c3n[nH]c4ccccc34)nn2)cc1 [Example 232]
0.1 to 1 µM	NC(=O)COc1ccc2c(-c3cn(-c4ccc(C(=O)N5CCOCC5)cc4)nn3)n[nH]c2c1 [Example 233]
1 to 5 µM	COCCOc1ccc2c(-c3cn(-c4ccc(C(=O)N5CCOCC5)cc4)nn3)n[nH]c2c1 [Example 234]

IC50	Compound
0.1 to 1 µM	O=C(c1ccc(-n2cc(-c3n[nH]c4cc(O)ccc34)nn2)cc1)N1CCOCC1 [Example 235]
0.1 to 1 µM	O=C(c1ccc2[nH]nc(-c3cn(-c4ccc(CN5CCOCC5)cc4)nn3)c2c1)N1CCC(c2ccncc2)CC1 [Example 236]
0.1 to 1 µM	CN(C)C1CCN(C(=O)c2ccc3[nH]nc(-c4cn(-c5ccc(CN6CCOCC6)cc5)nn4)c3c2)CC1 [Example 237]
0.1 to 1 µM	c1ccc2c(-c3cn(-c4ccc(C5CCN(CC6CCCO6)CC5)cc4)nn3)n[nH]c2c1 (stereo not drawn) [Example 239]
< 0.1 µM	O=C(c1ccc(-n2cc(-c3n[nH]c4cc(/C=C/CO)ccc34)nn2)cc1)N1CCOCC1 [Example 240]
0.1 to 1 µM	CN(C)S(=O)(=O)c1ccc(-n2cc(-c3n[nH]c4ccccc34)nn2)cc1 [Example 241]
0.1 to 1 µM	O=C(c1ccc(-n2cc(-c3n[nH]c4ccc(N5CCCC(F)(F)C5)cc34)nn2)cc1)N1CCOCC1 [Example 242]
0.1 to 1 µM	O=S(=O)(c1ccc(-n2cc(-c3n[nH]c4ccccc34)nn2)cc1)N1CCOCC1 [Example 243]
0.1 to 1 µM	O=C(c1ccc(-n2cc(-c3n[nH]c4cc(NCCO)ccc34)nn2)cc1)N1CCOCC1 [Example 244]
0.1 to 1 µM	CC(CO)Nc1ccc2c(-c3cn(-c4ccc(C(=O)N5CCOCC5)cc4)nn3)n[nH]c2c1 (stereo not drawn) [Example 245]
0.1 to 1 µM	c1ccc2c(-c3cn(-c4ccc(N5CCNCC5)cc4)nn3)n[nH]c2c1 [Example 246]
0.1 to 1 µM	c1ccc2c(-c3cn(-c4ccc(CN5CCCCC5)cc4)nn3)n[nH]c2c1 [Example 247]
0.1 to 1 µM	O=C(c1ccc(-n2cc(-c3n[nH]c4ccc(NCC5CCOCC5)cc34)nn2)cc1)N1CCOCC1 [Example 248]
0.1 to 1 µM	O=C(c1ccc(-n2cc(-c3n[nH]c4ccc(N5CCN6CCCC6C5)cc34)nn2)cc1)N1CCOCC1 (stereo not drawn) [Example 250]
< 0.1 µM	c1ccc2c(-c3cn(-c4ccc(C5CCCNC5)cc4)nn3)n[nH]c2c1 (stereo not drawn) [Example 252]
0.1 to 1 µM	O=C(c1ccc(-n2cc(-c3n[nH]c4ccc(N5CCCC(O)C5)cc34)nn2)cc1)N1CCOCC1 (stereo not drawn) [Example 254]
< 0.1 µM	O=C(c1ccc(-n2cc(-c3n[nH]c4ccc(NC5CCCNC5)cc34)nn2)cc1)N1CCOCC1 (stereo not drawn) [Example 257]
0.1 to 1 µM	Nc1ccc(-c2ccc(-n3cc(-c4n[nH]c5ccccc45)nn3)cc2)cn1 [Example 258]
0.1 to 1 µM	O=S1(=O)CCN(Cc2ccc(-n3cc(-c4n[nH]c5ccccc45)nn3)cc2)CC1 [Example 259]
0.1 to 1 µM	Cc1cc(-c2ccc(-n3cc(-c4n[nH]c5ccccc45)nn3)cc2)ccn1 [Example 260]
0.1 to 1 µM	Cn1cc(-c2ccc(-n3cc(-c4n[nH]c5ccccc45)nn3)cc2)cn1 [Example 261]

IC50	Compound
0.1 to 1 µM	c1ccc2c(-c3cn(-c4ccc(-c5cnn(CCN6CCOCC6)c5)cc4)nn3)n[nH]c2c1 [Example 262]
0.1 to 1 µM	FC(F)(F)c1cc(-n2cc(-c3n[nH]c4ccccc34)nn2)ccc1C1CCNCC1 [Example 263]
0.1 to 1 µM	O=C(c1ccc(-n2cc(-c3n[nH]c4ccc(N5CCOC(CCO)C5)cc34)nn2)cc1)N1CCOCC1 (stereo not drawn) [Example 264]
< 0.1 µM	Cc1ccc2c(-c3cn(-c4ccc(C5CCNCC5)cc4)nn3)n[nH]c2c1 [Example 265]
< 0.1 µM	Fc1ccc2c(-c3cn(-c4ccc(C5CCNCC5)cc4)nn3)n[nH]c2c1 [Example 266]
0.1 to 1 µM	CN1CCC(c2ccc(-n3cc(-c4n[nH]c5ccccc45)nn3)cc2C(F)(F)F)CC1 [Example 267]
< 0.1 µM	COc1cc(-n2cc(-c3n[nH]c4ccccc34)nn2)ccc1C1CCNCC1 [Example 268]
< 0.1 µM	c1ccc2c(-c3cn(-c4ccc(C5CCCNCC5)cc4)nn3)n[nH]c2c1 (stereo not drawn) [Example 269]
1 to 5 µM	Cc1ccc2c(-c3cn(-c4ccc(C5CCN(CCC(F)(F)F)CC5)cc4)nn3)n[nH]c2c1 [Example 270]
0.1 to 1 µM	OC(CN1CCC(c2ccc(-n3cc(-c4n[nH]c5cc(F)ccc45)nn3)cc2)CC1)C(F)(F)F (stereo not drawn) [Example 271]
< 0.1 µM	CC1(C)CNCCC1c1ccc(-n2cc(-c3n[nH]c4cc(F)ccc34)nn2)cc1 (stereo not drawn) [Example 275]
0.1 to 1 µM	O=C1C[C@@H](OCc2ccc3[nH]nc(-c4cn(-c5ccc(C(=O)N6CCOCC6)cc5)nn4)c3c2)CO1 [Example 276]
< 0.1 µM	CC1(C)CNCCC1c1ccc(-n2cc(-c3n[nH]c4ccccc34)nn2)cc1 (stereo not drawn) [Example 277]
0.1 to 1 µM	Cc1ccc2c(-c3cn(-c4ccc(CN5CCOC(C)(C)C5)cc4)nn3)n[nH]c2c1 [Example 279]
1 to 5 µM	Fc1ccc2c(-c3cn(-c4ccc(CN5CC6CCC(C5)O6)cc4)nn3)n[nH]c2c1 [Example 282]
1 to 5 µM	CC1(C)CN(Cc2ccc(-n3cc(-c4n[nH]c5cc(F)ccc45)nn3)cc2)CCO1 [Example 283]
1 to 5 µM	c1ccc2c(-c3cn(-c4ccc(CN5CC6CCC(C5)O6)cc4)nn3)n[nH]c2c1 [Example 284]
0.1 to 1 µM	Fc1ccc2c(-c3cn(-c4ccc(CN5CCCCC56COC6)cc4)nn3)n[nH]c2c1 [Example 285]
0.1 to 1 µM	Cc1ccc2c(-c3cn(-c4ccc(CN5CCCCC56COC6)cc4)nn3)n[nH]c2c1 [Example 287]
0.1 to 1 µM	Cc1nn(C)cc1-c1ccc(-n2cc(-c3n[nH]c4ccccc34)nn2)cc1 [Example 289]

Compound	IC50
CN1C2CCC1CC(n1cc(-n3cc(-c4n[nH]c5ccc(F)cc45)nn3)cn1)C2 (stereo not drawn) [Example 226]	0.1 to 1 µM
CN1C2CCC1CC(n1cc(-n3cc(-c4n[nH]c5ccc(Cl)cc45)nn3)cn1)C2 (stereo not drawn) [Example 227]	0.1 to 1 µM
CN1C2CCC1CC(n1cc(-n3cc(-c4n[nH]c5cc(F)ccc45)nn3)cn1)C2 (stereo not drawn) [Example 229]	< 0.1 µM
c1ccc2c(-c3cn(-c4ccc(C5CC6CCC(C5)N6C5COC5)cc4)nn3)n[nH]c2c1 (stereo not drawn) [Example 249]	0.1 to 1 µM
CN1[C@@H]2CC[C@H]1C[C@@H](c1ccc(-n3cc(-c4n[nH]c5cc(F)ccc45)nn3)cc1)C2 [Example 253]	< 0.1 µM
c1ccc2c(-c3cn(-c4ccc([C@@H]5C[C@H]6CC[C@@H](C5)N6)cc4)nn3)n[nH]c2c1 [Example 255]	< 0.1 µM
c1ccc2c(-c3cn(-c4ccc([C@H]5C[C@H]6CC[C@@H](C5)N6)cc4)nn3)n[nH]c2c1 [Example 256]	< 0.1 µM
CN1[C@@H]2CCC[C@H]1C[C@H](c1ccc(-n3cc(-c4n[nH]c5cc(F)ccc45)nn3)cc1)C2 [Example 272]	< 0.1 µM
CN1[C@@H]2CCC[C@H]1C[C@H](c1ccc(-n3cc(-c4n[nH]c5ccccc45)nn3)cc1)C2 [Example 273]	< 0.1 µM
Cc1ccc2c(-c3cn(-c4ccc([C@@H]5C[C@H]6CCC[C@@H](C5)N6C)cc4)nn3)n[nH]c2c1 [Example 274]	< 0.1 µM
CN1C2CCC1CC(n1cc(-n3cc(-c4n[nH]c5ccc(-c6cnn(C)c6)cc45)nn3)cn1)C2 (stereo not drawn) [Example 278]	< 0.1 µM
OC(CN1[C@@H]2CC[C@H]1C[C@@H](c1ccc(-n3cc(-c4n[nH]c5ccccc45)nn3)cc1)C2)C(F)(F)F (stereo partly drawn) [Example 280]	0.1 to 1 µM
OC(CN1[C@@H]2CC[C@H]1C[C@H](c1ccc(-n3cc(-c4n[nH]c5ccccc45)nn3)cc1)C2)C(F)(F)F (stereo partly drawn) [Example 281]	0.1 to 1 µM
